Results on four molecules are retold here after paper PMC7316994, “In Vitro Pharmacological Profile of a New Small Molecule Bradykinin B2 Receptor Antagonist” (Frontiers in Pharmacology, 2020).

Structures are written as SMILES. Like-named read-outs stand apart in the source and are kept apart here. Peptide text beside a SMILES is read from it.

The target of series [1] is T1, myc-tagged human B2 receptor (Homo sapiens, UniProt P30411).
T1 construct: expressed in transfected cells
Nature of the series: antibody internalization assay, HEK 293a cells. In kind it is cell-based. Particulars: BK 100 nM; antagonist 1 nM to 1 μM, 15 min before BK. The protocol: B2 receptor-mediated transport of immune complexes constructed at the cell surface was previously reported ([Bawolak et al., 2011]). Intact HEK 293a cells stably expressing the N-terminally myc-tagged B2 receptor construction (human sequence, [Charest-Morin et al., 2015]) were treated with the monoclonal anti-myc antibody (clone 4A6) conjugated with AlexaFluor-488 (Millipore, dilution 1:500) added to the culture medium. Cells were further incubated at 37°C. Without rinsing, a selected antagonist or their DMSO vehicle was added 5 min later, and BK (100 nM) or its saline vehicle 15 min later. After an additional 30 min incubation period at 37°C, cells were rinsed 3 times with Hank's balanced salt solution (Multicell Wisent, St. Bruno, Canada) and photographed in transmission and epifluorescence using an Olympus BX51 microscope coupled to a CoolSnap HQ digital camera (filters for AlexaFluor 488: excitation 460–500 nm, emission 510–560 nm).

The next series is described as follows: microsomal stability. Particulars: for microsomal CLint at 1 µM: male, Wistar, rat, liver microsomes, pH 7.4.
In series [2] the target is T2, endogenous human B2 receptor (Homo sapiens, UniProt P30411).
T2 construct: BK-induced contraction at endogenous human B2 receptor in the umbilical vein model; from tissue; host or cells: human umbilical vein rings (donor cords after elective caesarean section)
T2 sequence (P30411 1-391): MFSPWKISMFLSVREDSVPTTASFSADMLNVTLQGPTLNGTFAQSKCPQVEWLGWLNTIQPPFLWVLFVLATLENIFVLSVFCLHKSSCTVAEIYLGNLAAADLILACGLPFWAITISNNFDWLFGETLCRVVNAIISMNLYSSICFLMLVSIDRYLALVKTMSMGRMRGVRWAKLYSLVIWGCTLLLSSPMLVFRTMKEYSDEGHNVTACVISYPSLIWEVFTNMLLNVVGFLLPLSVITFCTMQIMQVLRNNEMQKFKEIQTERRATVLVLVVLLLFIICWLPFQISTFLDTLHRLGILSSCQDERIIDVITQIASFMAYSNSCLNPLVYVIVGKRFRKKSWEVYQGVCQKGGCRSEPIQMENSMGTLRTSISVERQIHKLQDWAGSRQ
Nature of the series: human isolated umbilical vein contractility assay, BK-induced contraction. Particulars: for type of antagonism of BK: BK concentration-effect curves, Emax; for pA2 / Kb: Schild plot; for pA2 / Kb / Schild plot slope: Pharm/PCS, ± S.E.M. where given; for Kb: read-out: pA2 (converted); for Schild plot slope: Schild regression; for Maximal BK-induced response in absolute force units ± S.E.M.: vehicle: Icatibant 1.90, Compound 1 […]; for pA2 value converted into nM: potency from pA2.

The target of the next series is T3, prostanoid TP receptor (Homo sapiens, UniProt P21731).
T3 construct: endogenous human prostanoid TP receptors in the umbilical vein model; from tissue; host or cells: human umbilical vein rings
Description: umbilical vein, U-46619-induced contraction. Particulars: Compound 2 10 μM; Compound 3 1 μM. The source says: (§1) The local ethics committee (CHU de Québec-Université Laval) had approved the project (File no. 2017-3720). Umbilical cords were obtained following elective caesarean sections; all problematic deliveries are excluded. Informed consent was obtained from the mothers. The cords were transported from the maternity ward to the laboratory in sterile Hank's balanced salt solution containing penicillin and streptomycin. Segments of umbilical veins were dissected carefully from the cords and a metal rod was inserted in the lumen. Excess connective tissue was excised and rings (2–3 mm wide) were cut. Rings of umbilical veins were suspended in 5-mL organ chambers containing oxygenated (95% O2, 5% CO2) and warmed (37°C) Krebs' solution between a metal hook and a thread loop. This solution had the following composition: NaCl 117.5 mM, KCl 4.7 mM, KH2PO4 1.2 mM, MgSO4 1.18 mM, CaCI2 2.5 mM, NaHCO3 25.0 mM, and D-glucose 5.5 mM. A baseline of one gram-weight was applied to these preparations. Changes of tension were recorded by using isometric transducers (model 52-9545, Harvard Bioscience, South Natick MA). Eight tissue baths are operated in parallel.
(§2) For this purpose, contractile responses to serotonin, acting on the 5-HT2A receptor, and U-46619, acting at the prostanoid TP receptor, were measured ([Rogines-Velo et al., 2002]; [Daray et al., 2003]).

In series [3] the target is T4, B2 receptor (Homo sapiens, UniProt P30411).
T4 sequence (P30411 1-391): T2 sequence (P30411 1-391)
Nature of the series: [^3H]BK competition binding assay, CHO cell membranes. On the set-up: host or cells: CHO cells. Particulars: for IC50 / Ki: competition with 0.3 nM [^3H]BK; for fold lower affinity compared to Compound 3 and icatibant: radioligand binding.

Series [4] has as its target T4, B2 receptor. Description: Ca^2+ mobilization assay, transfected CHO cells. In kind it is cell-based. On the set-up: host or cells: CHO cells. Particulars: for IC50 / Kb: inhibition of response to 0.03 nM BK.
The nature of series [5]: Caco-2 permeation assay (bidirectional). Particulars: human.
In a further series the target is T5, 5-HT2A receptor (Homo sapiens, UniProt P28223).
T5 construct: other endogenously expressed receptors in the human umbilical vein; from tissue; host or cells: human umbilical vein rings
Description: umbilical vein, serotonin-induced contraction. Particulars: Compound 2 10 μM; Compound 3 1 μM.
Source text: as §1, §2

For a further series, the target named is T6, human myc-B2 receptor (Homo sapiens, UniProt P30411).
T6 construct: expressed in transfected cells
T6 sequence (P30411 1-391): T2 sequence (P30411 1-391)
Description: c-Fos immunoblot, HEK 293a cells stably expressing myc-B2 receptor. It counts as cell-based. Particulars: BK 10 nM. The source says: Supplementary Methods: Immunoblots for c-Fos signaling
The construction of myc-tagged B2 receptor expression vector containing the human receptor sequence has been recently reported, as well as the derivation of HEK293a cell lines that stably express the construction (Charest-Morin et al., 2015). Immunoblotting experiments, conducted as described (Koumbadinga et al., 2010), were used to study the effect of selected antagonists on BK-induced signaling. Briefly, HEK 293a cells stably expressing the human myc-B2 receptor were stimulated with BK agonists for 60 min at 37°C, with or without a pretreatment with the antagonist (applied 15 min before BK). Total cell extracts were immunoblotted to detect c-Fos expression using the K-25 rabbit polyclonal antibodies (Santa Cruz Biotechnology, Dallas, TX; dilution 1:50,000). In these experiments, β-actin was used as a loading control and was detected using the monoclonal anti-β-actin antibody, clone AC-15 (Sigma-Aldrich; dilution 1:50,000).

In series [6] the target is T7, cynomolgus monkey B2 receptor (Macaca fascicularis, UniProt A0A7N9CWN6).
T7 sequence (A0A7N9CWN6 1-391): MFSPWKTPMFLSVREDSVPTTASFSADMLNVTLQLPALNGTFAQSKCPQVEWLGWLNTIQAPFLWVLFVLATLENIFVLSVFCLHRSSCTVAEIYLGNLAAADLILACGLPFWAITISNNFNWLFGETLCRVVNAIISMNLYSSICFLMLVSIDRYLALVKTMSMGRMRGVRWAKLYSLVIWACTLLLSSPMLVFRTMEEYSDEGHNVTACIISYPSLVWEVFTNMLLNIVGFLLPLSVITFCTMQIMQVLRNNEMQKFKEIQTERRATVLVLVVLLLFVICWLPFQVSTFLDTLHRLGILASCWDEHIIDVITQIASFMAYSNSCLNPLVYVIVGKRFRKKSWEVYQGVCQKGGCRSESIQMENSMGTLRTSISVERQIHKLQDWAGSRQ
Particulars: mean ± S.D.

Series [7] addresses T7, cynomolgus monkey B2 receptor. Nature of the series: cell-based.
Setting [8] is: antagonist 10 nM, Compound 2 2.25, Compound 3 1.52.
Where [9] appears, read: antagonist 100 nM, Compound 2 2.25, Compound 3 1.52.
Where [10] appears, read: antagonist 1 μM, Compound 2 2.25, Compound 3 1.52.
The mark [11] stands for this setting: antagonist 10 μM, Compound 2 2.25.
Where [12] appears, read: arithmetic mean, read-out: IC50 (nM) Mean.
Where [13] appears, read: arithmetic mean, read-out: Ki (nM) Mean.
[14] abbreviates: geometric mean, read-out: IC50 (nM) Geometric mean.
[15] abbreviates: geometric mean, read-out: Ki (nM) Geometric mean.
Setting [16] is: arithmetic mean, read-out: Kb (nM) Mean.
Setting [17] is: geometric mean, read-out: Kb (nM) Geometric mean.

T3 sequence (P21731 whole entry): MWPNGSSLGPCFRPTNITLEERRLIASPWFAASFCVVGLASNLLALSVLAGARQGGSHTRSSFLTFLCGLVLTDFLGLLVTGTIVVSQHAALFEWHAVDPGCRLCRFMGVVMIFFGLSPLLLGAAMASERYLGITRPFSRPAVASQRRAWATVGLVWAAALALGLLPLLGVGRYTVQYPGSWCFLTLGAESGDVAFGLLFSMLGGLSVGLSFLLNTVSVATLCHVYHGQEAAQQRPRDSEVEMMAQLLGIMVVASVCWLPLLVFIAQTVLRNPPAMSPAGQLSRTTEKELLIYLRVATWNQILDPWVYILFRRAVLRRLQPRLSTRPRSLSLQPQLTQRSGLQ
T5 sequence (P28223 whole entry): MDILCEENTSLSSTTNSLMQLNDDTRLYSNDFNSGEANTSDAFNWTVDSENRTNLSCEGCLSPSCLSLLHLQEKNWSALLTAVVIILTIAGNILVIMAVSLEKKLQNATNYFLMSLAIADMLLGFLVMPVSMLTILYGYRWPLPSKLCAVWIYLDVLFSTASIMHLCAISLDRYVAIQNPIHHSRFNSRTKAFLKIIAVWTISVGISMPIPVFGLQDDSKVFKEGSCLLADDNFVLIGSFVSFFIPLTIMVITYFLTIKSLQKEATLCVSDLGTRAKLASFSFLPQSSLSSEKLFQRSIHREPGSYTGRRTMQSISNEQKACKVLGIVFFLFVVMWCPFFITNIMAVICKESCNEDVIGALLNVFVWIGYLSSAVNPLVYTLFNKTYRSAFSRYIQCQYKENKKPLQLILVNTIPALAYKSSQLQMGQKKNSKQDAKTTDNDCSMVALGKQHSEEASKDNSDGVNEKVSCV

Turning to `Cc1cc(-c2ncnn2C)c2cccc(OCc3c(Cl)cncc3C(C)NC(=O)COC(F)F)c2n1` (racemic) [Compound 2, rac-N-(1-(5-chloro-4-((2-methyl-4-(1-methyl-1H-1,2,4-triazol-5-yl)quinolin-8-yloxy)methyl)pyridin-3-yl)ethyl)-2-(difluoromethoxy)acetamide], the “concentration with clear efficacy in inhibiting BK-induced endocytosis” value in series [1] is ≥ 100 nM. The molecule further came in with a microsomal CLint at 1 µM in “microsomal stability” of 497 µL/min/mg. Also, the “fold lower intrinsic clearance compared with Compound 3 (so in the source)” value in the series “microsomal stability” (rat microsomal stability assay) is on record as 18 fold. Also, the “type of antagonism of BK” value in series [2] is “competitive”. The same molecule returned a pA2 in series [2] of 9.02 ± 0.31. In addition, the Kb was 0.955 nM in series [2], 1.08 nM on B2 receptor [4] (setting [16]) and 0.95 nM on B2 receptor [4] (setting [17]). Besides, in series [2], the Schild plot slope is reported as −0.65. Moreover, the “Maximal BK-induced response in absolute force units ± S.E.M.” value in [2] (setting [8]) came to 2.07 ± 0.30 grams-weight; in [2] (setting [9]) it was 2.26 ± 0.42 grams-weight; in [2] (setting [10]), 2.00 ± 0.32 grams-weight; in series [2] (setting [11]), 1.82 ± 0.18 grams-weight. Besides, the “pA2 value converted into nM” value in series [2] was determined as 0.95 nM. For the same molecule, at prostanoid TP receptor, the “effect on U-46619-induced contraction” value is “failed to modify”. In addition, the IC50 on B2 receptor [3] (setting [12]) came out at 7.6 nM; at B2 receptor [3] (setting [14]), 7.6 nM; at B2 receptor [4] (setting [12]) it was 9.57 nM; at B2 receptor [4] (setting [14]), 8.3 nM. In addition, the inhibition constant Ki at B2 receptor [3] (setting [13]) and at B2 receptor [3] (setting [15]) was 3.9 nM in each case. Also, the “fold lower affinity compared to Compound 3 and icatibant” value on B2 receptor [3] is reported as “about 7 fold”. Moreover, on B2 receptor [4] (B2 receptor), the “fold lower potency compared with Compound 3” value is listed as 4.0 fold. Further, the apparent permeability from apical to basolateral (Papp A→B) at 60 min, 10 µM in [5] stood at 3.9 ×10⁻⁶ cm/s. In [5], the Papp B→A at 60 min, 10 µM came out at 29.9 ×10⁻⁶ cm/s. Also, the efflux ratio at 60 min, 10 µM in series [5] stood at 7.7. In addition, the “effect on serotonin-induced contraction” value at 5-HT2A receptor is “failed to modify”. Also, at human myc-B2 receptor (60 min), the “antagonist concentration that significantly reduced the c-Fos response to BK” value is listed as 100 nM. For the same molecule, the “effect on BK-induced c-Fos accumulation” value on human myc-B2 receptor (co-treatment between 10 nM and 1 μM) is given as “inhibited this response in a concentration-dependent manner”.

With `N=C(N)NCCC[C@H](NC(=O)[C@H](Cc1ccccc1)NC(=O)[C@@H]1CCCN1C(=O)[C@H](CO)NC(=O)[C@H](Cc1ccccc1)NC(=O)CNC(=O)[C@@H]1CCCN1C(=O)[C@@H]1CCCN1C(=O)[C@@H](N)CCCNC(=N)N)C(=O)O` [BK] (H-RPPGFSPFR-OH), the “average agonist EC80, Ca^2+ mobilization” value in series [6] was 539 ± 160 pM.

Turning to `NC(N)=NCCC[C@H](NC(=O)[C@H](Cc1ccccc1)NC(=O)[C@@H]1CCCN1C(=O)[C@H](CO)NC(=O)[C@H](Cc1ccccc1)NC(=O)CNC(=O)[C@@H]1CCCN1C(=O)[C@@H]1CCCN1C(=O)[C@@H](N)CCCN=C(N)N)C(=O)O` [BK] (H-RPPGFSPFR-OH), the EC50 in series [7] was found to be 0.155 ± 0.043 nM.

`Cc1cc(-c2ncnn2C)c2cccc(OCc3c(Cl)cncc3CNC(=O)C3CCCCC3)c2n1` [Compound 1, N-((5-chloro-4-((2-methyl-4-(1-methyl-1H-1,2,4-triazol-5-yl)quinolin-8-yloxy)methyl)pyridin-3-yl)methyl)cyclohexanecarboxamide] showed a microsomal CLint at 1 µM in “microsomal stability” of 960 µL/min/mg. Further, the “type of antagonism of BK” value in series [2] is “competitive”. Further, the pA2 in series [2] was 8.58 ± 0.26. For the same molecule, the results for the Kb (in [2]; at B2 receptor [4] (setting [16]); at B2 receptor [4] (setting [17])) were 2.63 nM, 1.3 nM and 1.24 nM, respectively. In addition, the Schild plot slope in series [2] is on record as −0.62. The “Maximal BK-induced response in absolute force units ± S.E.M.” value stood at 1.48 ± 0.24 grams-weight in series [2] (setting [8]), 2.08 ± 0.28 grams-weight in series [2] (setting [9]), 1.46 ± 0.20 grams-weight in series [2] (setting [10]) and 1.67 ± 0.28 grams-weight in series [2] (setting [11]). In addition, the “pA2 value converted into nM” value in series [2] was 2.63 nM. Moreover, the IC50 on B2 receptor [3] (setting [12]) was determined as 7.4 nM; on B2 receptor [3] (setting [14]), 7.4 nM; at B2 receptor [4] (setting [12]), 11.3 nM; at B2 receptor [4] (setting [14]), 11 nM. The Ki on B2 receptor [3] (setting [13]) and on B2 receptor [3] (setting [15]) was 3.8 nM in each case. Also, the “fold lower affinity compared to Compound 3 and icatibant” value at B2 receptor [3] is reported as “about 7 fold”. Besides, the Papp A→B at 60 min, 10 µM in series [5] was 5.5 ×10⁻⁶ cm/s. The Papp B→A at 60 min, 10 µM in [5] was found to be 20.9 ×10⁻⁶ cm/s. Moreover, the efflux ratio at 60 min, 10 µM in series [5] stood at 5.5.
